Results published in patent publication US20250154144A1 (CHILDREN'S HOSPITAL MEDICAL CENTER, priority 2021, published 2025).
Where two headings read alike, the source gives them in different places.

What was measured:
THP1 cells = assay: Combination drug screening, Cell Titer Glo, 10 × 10 matrix, THP1 cells; assay type: cell-based
MOLM14(D835Y) cells = assay type: cell-based; conditions: MOLM14(D835Y), 10 × 10
[1] = starting conc. 2000 nM, with (+)-BAY-1251152 starting conc. 1000 nM
[2] = starting conc. 2000 nM, with Azacitidine (5-Azacytidine) starting conc. 20000 nM
[3] = starting conc. 2000 nM, with Palbociclib starting conc. 10000 nM
[4] = starting conc. 2000 nM, with Prednisolone starting conc. 10000 nM
[5] = starting conc. 2000 nM, with TNO-155 starting conc. 10000 nM
[6] = starting conc. 2000 nM, with Venetoclax (ABT-199) starting conc. 2000 nM
[7] = starting conc. 2000 nM, with Venetoclax (ABT-199) starting conc. 20000 nM
[8] = starting conc. 20000 nM, with (+)-BAY-1251152 starting conc. 1000 nM
[9] = starting conc. 20000 nM, with Azacitidine (5-Azacytidine) starting conc. 20000 nM
[10] = starting conc. 20000 nM, with Palbociclib starting conc. 10000 nM
[11] = starting conc. 20000 nM, with Prednisolone starting conc. 10000 nM
[12] = starting conc. 20000 nM, with TNO-155 starting conc. 10000 nM
[13] = starting conc. 20000 nM, with Venetoclax (ABT-199) starting conc. 2000 nM
[14] = starting conc. 20000 nM, with Venetoclax (ABT-199) starting conc. 20000 nM
[15] = title compound starting conc. 20000 nM + (+)-BAY-1251152 starting conc. 1000 nM
[16] = title compound starting conc. 20000 nM + Azacitidine (5-Azacytidine) starting conc. 20000 nM
[17] = title compound starting conc. 20000 nM + Palbociclib starting conc. 10000 nM
[18] = title compound starting conc. 20000 nM + Prednisolone starting conc. 10000 nM
[19] = title compound starting conc. 20000 nM + TNO-155 starting conc. 10000 nM
[20] = title compound starting conc. 20000 nM + Venetoclax (ABT-199) starting conc. 2000 nM
[21] = title compound starting conc. 20000 nM + Venetoclax (ABT-199) starting conc. 20000 nM
[22] = starting conc. 200 nM, with (+)-BAY-1251152 starting conc. 1000 nM
[23] = starting conc. 200 nM, with Azacitidine (5-Azacytidine) starting conc. 20000 nM
[24] = starting conc. 200 nM, with Palbociclib starting conc. 10000 nM
[25] = starting conc. 200 nM, with Prednisolone starting conc. 10000 nM
[26] = starting conc. 200 nM, with TNO-155 starting conc. 10000 nM
[27] = starting conc. 200 nM, with Venetoclax (ABT-199) starting conc. 2000 nM
[28] = starting conc. 200 nM, with Venetoclax (ABT-199) starting conc. 20000 nM

Cc1cc(-c2nc(C(=O)Nc3cc4oc(N5CCOCC5)nc4nc3N3CC[C@@H](O)C3)co2)ccn1 [CA-4948, reference compound]
Comments (THP1 cells; [1]): Antagonistic at both
Excess HSA Score (THP1 cells; [1]): 43.42
Comments (THP1 cells; [2]): Synergistic
Excess HSA Score (THP1 cells; [2]): −147.4
Comments (THP1 cells; [3]): Synergistic
Excess HSA Score (THP1 cells; [3]): −41.44
Comments (THP1 cells; [4]): Antagonistic
Excess HSA Score (THP1 cells; [4]): 28.64
Comments (THP1 cells; [5]): Antagonistic
Excess HSA Score (THP1 cells; [5]): 22.1261
Comments (THP1 cells; [6]): Antagonistic
Excess HSA Score (THP1 cells; [6]): 806.5237
Comments (THP1 cells; [7]): Synergistic; Optimal
Excess HSA Score (THP1 cells; [7]): −48.9669
Comments (THP1 cells; [8]): Antagonistic at both
Excess HSA Score (THP1 cells; [8]): 230.5
Comments (THP1 cells; [9]): Synergistic
Excess HSA Score (THP1 cells; [9]): −562.3
Comments (THP1 cells; [10]): Antagonistic
Excess HSA Score (THP1 cells; [10]): 579.4
Comments (THP1 cells; [11]): Synergistic
Excess HSA Score (THP1 cells; [11]): −33.05
Comments (THP1 cells; [12]): Additive
Excess HSA Score (THP1 cells; [12]): −0.9078
Comments (THP1 cells; [13]): Synergistic; Optimal
Excess HSA Score (THP1 cells; [13]): −352.8
Comments (THP1 cells; [14]): Synergistic; Optimal
Excess HSA Score (THP1 cells; [14]): −979.3
Excess HSA Score (MOLM14(D835Y) cells; title compound starting conc. 2000 nM + (+)-BAY-1251152 starting conc. 1000 nM): −153.6
Excess HSA Score (MOLM14(D835Y) cells; title compound starting conc. 2000 nM + Azacitidine (5-Azacytidine) starting conc. 20000 nM): −672.6
Excess HSA Score (MOLM14(D835Y) cells; title compound starting conc. 2000 nM + Palbociclib starting conc. 10000 nM): −930
Excess HSA Score (MOLM14(D835Y) cells; title compound starting conc. 2000 nM + Prednisolone starting conc. 10000 nM): −435.8
Excess HSA Score (MOLM14(D835Y) cells; title compound starting conc. 2000 nM + TNO-155 starting conc. 10000 nM): −1272
Excess HSA Score (MOLM14(D835Y) cells; title compound starting conc. 2000 nM + Venetoclax (ABT-199) starting conc. 2000 nM): −280.9
Excess HSA Score (MOLM14(D835Y) cells; title compound starting conc. 2000 nM + Venetoclax (ABT-199) starting conc. 20000 nM): −1172
Excess HSA Score (MOLM14(D835Y) cells; [15]): −195.3
Excess HSA Score (MOLM14(D835Y) cells; [16]): −612.1
Excess HSA Score (MOLM14(D835Y) cells; [17]): −90.76
Excess HSA Score (MOLM14(D835Y) cells; [18]): −397.1
Excess HSA Score (MOLM14(D835Y) cells; [19]): −1174
Excess HSA Score (MOLM14(D835Y) cells; [20]): −1088
Excess HSA Score (MOLM14(D835Y) cells; [21]): −1078.145

Cc1cnc(-c2ccc(-c3ccc(NC(=O)Nc4c(F)cc(F)cc4F)cc3F)c3c2C(=O)NC3)[nH]1 [CG-806, reference compound]
Comments (THP1 cells; [22]): Synergistic at both
Excess HSA Score (THP1 cells; [22]): −467.1
Comments (THP1 cells; [23]): Antagonistic
Excess HSA Score (THP1 cells; [23]): 45.86
Comments (THP1 cells; [24]): Antagonistic
Excess HSA Score (THP1 cells; [24]): 74.09
Comments (THP1 cells; [25]): Synergistic
Excess HSA Score (THP1 cells; [25]): −30.78
Comments (THP1 cells; [26]): Antagonistic
Excess HSA Score (THP1 cells; [26]): 12.04
Comments (THP1 cells; [27]): Synergistic; Optimal
Excess HSA Score (THP1 cells; [27]): −1194
Comments (THP1 cells; [28]): Synergistic; Optimal
Excess HSA Score (THP1 cells; [28]): −1904
Comments (THP1 cells; [8]): Synergistic at both
Excess HSA Score (THP1 cells; [8]): −821.7
Comments (THP1 cells; [9]): Synergistic
Excess HSA Score (THP1 cells; [9]): −425.4
Comments (THP1 cells; [10]): Synergistic
Excess HSA Score (THP1 cells; [10]): −65.24
Comments (THP1 cells; [11]): Antagonistic
Excess HSA Score (THP1 cells; [11]): 185.6
Comments (THP1 cells; [12]): Synergistic
Excess HSA Score (THP1 cells; [12]): −333.2
Comments (THP1 cells; [13]): Synergistic; Optimal
Excess HSA Score (THP1 cells; [13]): −9.516
Comments (THP1 cells; [14]): Synergistic; Optimal
Excess HSA Score (THP1 cells; [14]): −1150
Excess HSA Score (MOLM14(D835Y) cells; title compound starting conc. 200 nM + (+)-BAY-1251152 starting conc. 1000 nM): −340.1
Excess HSA Score (MOLM14(D835Y) cells; title compound starting conc. 200 nM + Azacitidine (5-Azacytidine) starting conc. 20000 nM): −208.9
Excess HSA Score (MOLM14(D835Y) cells; title compound starting conc. 200 nM + Palbociclib starting conc. 10000 nM): −828
Excess HSA Score (MOLM14(D835Y) cells; title compound starting conc. 200 nM + Prednisolone starting conc. 10000 nM): −264.6
Excess HSA Score (MOLM14(D835Y) cells; title compound starting conc. 200 nM + TNO-155 starting conc. 10000 nM): −776.6
Excess HSA Score (MOLM14(D835Y) cells; title compound starting conc. 200 nM + Venetoclax (ABT-199) starting conc. 2000 nM): −1066
Excess HSA Score (MOLM14(D835Y) cells; title compound starting conc. 200 nM + Venetoclax (ABT-199) starting conc. 20000 nM): −258.9
Excess HSA Score (MOLM14(D835Y) cells; [15]): −150.9
Excess HSA Score (MOLM14(D835Y) cells; [16]): −51.33
Excess HSA Score (MOLM14(D835Y) cells; [17]): −199.1
Excess HSA Score (MOLM14(D835Y) cells; [18]): 107.5
Excess HSA Score (MOLM14(D835Y) cells; [19]): −286.9
Excess HSA Score (MOLM14(D835Y) cells; [20]): −481.6
Excess HSA Score (MOLM14(D835Y) cells; [21]): −139.4

CCc1nc(C(N)=O)c(Nc2ccc(N3CCC(N4CCN(C)CC4)CC3)c(OC)c2)nc1NC1CCOCC1 [Gilteritinib hemifumarate, Gilteritinib, reference compound]
Excess HSA Score (THP1 cells; starting conc. 500 nM, with (+)-BAY-1251152 starting conc. 1000 nM): −10.1945
Excess HSA Score (THP1 cells; starting conc. 500 nM, with Azacitidine (5-Azacytidine) starting conc. 20000 nM): −354.4
Excess HSA Score (THP1 cells; starting conc. 500 nM, with Palbociclib starting conc. 10000 nM): −228
Excess HSA Score (THP1 cells; starting conc. 500 nM, with Prednisolone starting conc. 10000 nM): 119.9
Excess HSA Score (THP1 cells; starting conc. 500 nM, with TNO-155 starting conc. 10000 nM): 15.34
Excess HSA Score (THP1 cells; starting conc. 500 nM, with Venetoclax (ABT-199) starting conc. 2000 nM): −95.51
Excess HSA Score (THP1 cells; starting conc. 500 nM, with Venetoclax (ABT-199) starting conc. 20000 nM): −866.3
Excess HSA Score (THP1 cells; [8]): −484.1
Excess HSA Score (THP1 cells; [9]): −391.5
Excess HSA Score (THP1 cells; [10]): −415
Excess HSA Score (THP1 cells; [11]): −149.2201
Excess HSA Score (THP1 cells; [12]): −398.3
Excess HSA Score (THP1 cells; [13]): −448
Excess HSA Score (THP1 cells; [14]): −1390
Excess HSA Score (MOLM14(D835Y) cells; title compound starting conc. 500 nM + (+)-BAY-1251152 starting conc. 1000 nM): 161.1
Excess HSA Score (MOLM14(D835Y) cells; title compound starting conc. 500 nM + Azacitidine (5-Azacytidine) starting conc. 20000 nM): −848
Excess HSA Score (MOLM14(D835Y) cells; title compound starting conc. 500 nM + Palbociclib starting conc. 10000 nM): −910.3
Excess HSA Score (MOLM14(D835Y) cells; title compound starting conc. 500 nM + Prednisolone starting conc. 10000 nM): −285.8
Excess HSA Score (MOLM14(D835Y) cells; title compound starting conc. 500 nM + TNO-155 starting conc. 10000 nM): −773.9
Excess HSA Score (MOLM14(D835Y) cells; title compound starting conc. 500 nM + Venetoclax (ABT-199) starting conc. 2000 nM): −704
Excess HSA Score (MOLM14(D835Y) cells; title compound starting conc. 500 nM + Venetoclax (ABT-199) starting conc. 20000 nM): −237.3
Excess HSA Score (MOLM14(D835Y) cells; [15]): 43.97
Excess HSA Score (MOLM14(D835Y) cells; [16]): −117
Excess HSA Score (MOLM14(D835Y) cells; [17]): −262.1121
Excess HSA Score (MOLM14(D835Y) cells; [18]): −290.6
Excess HSA Score (MOLM14(D835Y) cells; [19]): −494.5
Excess HSA Score (MOLM14(D835Y) cells; [20]): −876.4
Excess HSA Score (MOLM14(D835Y) cells; [21]): −271.3
